This passage reports MIC results from patent US20100184684A1, “ANTIBACTERIAL AND ANTIFUNGAL PEPTIDES” (C3 JIAN, INC., priority 2009, published 2010).

In brackets after ≈: the same amount, converted by molar mass. Like-named read-outs stand apart in the source and are kept apart here. Peptide text beside a SMILES is read from it.

One assay has as its system S. epidermidis. It counts as cell-based. Here is the method:
(§1) In certain embodiments the MIC assays are performed as described herein in the Examples. For each organism, the media and growth conditions utilized is detailed in Table 8.
(§2) In certain embodiments the MIC assays are performed as follows: For each organism, the media and growth conditions utilized is detailed in Table 8.

The next assay has as its system T. rubrum. It counts as cell-based, Trichophyton rubrum. Here is the method:
as §1, §2

In a further assay the test system is B. subtilis. It counts as cell-based, Bacillus subtilis. Here is the method: as §1, §2
A further assay relates to C. difficile. The format is cell-based, Clostridium difficile. The method, then: as §1, §2
The test system of a further assay is A. niger. It counts as cell-based, Aspergillus niger. The method, then: as §1, §2
Another assay has as its system MRSA. The format is cell-based, Staphylococcus aureus. The method, then: as §1, §2
In a further assay the test system is P. aeruginosa. The format is cell-based, Pseudomonas aeruginosa. The note with it: P. aeruginosa; MH, 37° C., aerobic, 10^5 CFU/ml. The method, then:
as §1, §2

In a further assay the test system is S. mutans. The format is cell-based, Streptococcus mutans. The method, then: as §1, §2
Another assay relates to C. albicans. The format is cell-based, Candida albicans. Here is the method:
as §1, §2

Take `CC[C@H](C)[C@H](NC(=O)[C@H](CO)NC(=O)[C@H](CC(N)=O)NC(=O)[C@H](CCCNC(=N)N)NC(=O)[C@H](CC(N)=O)NC(=O)[C@H](CC(C)C)NC(=O)[C@H](CCCCN)NC(=O)[C@H](CCCCN)NC(=O)[C@H](CCCCN)NC(=O)[C@@H](NC(=O)[C@@H]1CCCN1C(=O)[C@H](CO)NC(=O)[C@H](CCCNC(=N)N)NC(=O)[C@@H](NC(=O)[C@H](CCCNC(=N)N)NC(=O)[C@@H](NC(=O)[C@@H](N)CCSC)[C@@H](C)CC)[C@@H](C)CC)[C@@H](C)O)C(=O)N[C@@H](CO)C(=O)N[C@@H](CC(=O)O)C(=O)N[C@@H](Cc1c[nH]c2ccccc12)C(=O)N[C@@H](CCCCN)C(=O)N[C@@H](CO)C(=O)N[C@@H](CC(N)=O)C(=O)N[C@H](C(=O)N[C@@H](CO)C(=O)NCC(=O)N[C@@H](CCCNC(=N)N)C(=O)N[C@@H](Cc1ccccc1)C(=O)N[C@@H](Cc1ccccc1)C(=O)N[C@@H](Cc1ccc(O)cc1)C(=O)O)[C@@H](C)O` [PF-283] (H-MIRIRSPTKKKLNRNSISDWKSNTSGRFFY-OH; N-terminus and C-terminus assumed): the MIC against S. epidermidis, with T. rubrum and in the assay on B. subtilis was 50 µM (≈ 182 µg/mL) throughout.

`CC[C@H](C)[C@H](NC(=O)[C@H](CCCCN)NC(=O)CNC(=O)[C@H](CC(C)C)NC(=O)[C@H](CC(N)=O)NC(=O)[C@@H](NC(=O)[C@H](CCC(=O)O)NC(=O)[C@H](CC(C)C)NC(=O)[C@H](Cc1c[nH]c2ccccc12)NC(=O)[C@H](CC(=O)O)NC(=O)[C@@H](NC(=O)[C@H](CC(C)C)NC(=O)[C@H](CCC(=O)O)NC(=O)[C@@H](N)Cc1ccccc1)C(C)C)[C@@H](C)O)C(=O)N[C@@H](CC(C)C)C(=O)N[C@@H](CCCCN)C(=O)N[C@@H](CO)C(=O)N[C@@H](CCCCN)C(=O)N[C@@H](CO)C(=O)N[C@@H](C)C(=O)O` [PF-522] (H-FELVDWLETNLGKILKSKSA-OH; N-terminus and C-terminus assumed) gave an MIC in the assay with C. difficile of 25 µM (≈ 57.3 µg/mL).

Take `CC[C@H](C)[C@H](NC(=O)[C@H](CCCNC(=N)N)NC(=O)[C@@H](NC(=O)[C@H](CCCCN)NC(=O)[C@H](CCCCN)NC(=O)[C@H](CC(C)C)NC(=O)[C@H](CC(C)C)NC(=O)[C@H](CCCCN)NC(=O)[C@H](CCCNC(=N)N)NC(=O)[C@H](Cc1c[nH]cn1)NC(=O)[C@H](CCCCN)NC(=O)[C@H](CCCCN)NC(=O)[C@H](CCCCN)NC(=O)[C@H](C)NC(=O)[C@H](CCSC)NC(=O)[C@H](CCCNC(=N)N)NC(=O)[C@H](CCCCN)NC(=O)[C@H](CCCNC(=N)N)NC(=O)[C@H](CCCNC(=N)N)NC(=O)[C@H](CCCCN)NC(=O)[C@H](CCCCN)NC(=O)[C@@H](NC(=O)[C@@H](NC(=O)[C@H](CO)NC(=O)CN)C(C)C)[C@@H](C)CC)[C@@H](C)O)C(=O)N[C@@H](CCC(N)=O)C(=O)N[C@@H](CCCNC(=N)N)C(=O)N[C@@H](CCCNC(=N)N)C(=O)N[C@@H](CCCNC(=N)N)C(=O)N[C@@H](C)C(=O)NCC(=O)N[C@@H](CCCCN)C(=O)O` [PF-527] (H-GSVIKKRRKRMAKKKHRKLLKKTRIQRRRAGK-OH; N-terminus and C-terminus assumed): the MIC came to 50 µM (≈ 197 µg/mL) in the assay on A. niger (A. niger, Potato Dextrose Agar, 25° C., aerobic, 10^5 CFU/ml); 25 µM (≈ 98.5 µg/mL) in the assay on S. epidermidis (S. epidermidis, BHI supplemented with 0.25% glucose, 37° C., aerobic, 10^5 CFU/ml); 50 µM (≈ 197 µg/mL) against MRSA (MRSA, BHI supplemented with 2% glucose, 37° C., aerobic, 10^5 CFU/ml); 50 µM (≈ 197 µg/mL) in the assay on P. aeruginosa; 25 µM (≈ 98.5 µg/mL) with T. rubrum (T. rubrum, Potato Dextrose Agar, 25° C., aerobic, 10^5 CFU/ml).

On to `CC[C@H](C)[C@H](NC(=O)[C@H](CCCNC(=N)N)NC(=O)[C@H](CCCNC(=N)N)NC(=O)[C@H](CCCNC(=N)N)NC(=O)[C@@H](NC(=O)[C@H](CCSC)NC(=O)[C@H](CC(=O)O)NC(=O)[C@H](C)NC(=O)[C@H](CCSC)NC(=O)[C@H](C)NC(=O)[C@@H](NC(=O)[C@H](CC(C)C)NC(=O)[C@H](CCCCN)NC(=O)[C@H](CO)NC(=O)[C@H](CCC(=O)O)NC(=O)[C@@H](N)CCCNC(=N)N)[C@@H](C)CC)[C@@H](C)CC)C(=O)O` [PF-545] (H-RESKLIAMADMIRRRI-OH; N-terminus and C-terminus assumed), for which the MIC with A. niger was determined as 50 µM (≈ 98 µg/mL); against MRSA, 50 µM (≈ 98 µg/mL); in the assay with B. subtilis, 25 µM (≈ 49 µg/mL).

Consider `CC(C)[C@H](NC(=O)[C@H](CCCCN)NC(=O)[C@H](Cc1c[nH]c2ccccc12)NC(=O)CNC(=O)[C@@H](NC(=O)[C@H](CC(=O)O)NC(=O)[C@H](CO)NC(=O)[C@H](Cc1c[nH]cn1)NC(=O)CNC(=O)[C@@H]1CCCN1C(=O)[C@@H](NC(=O)[C@H](CCCNC(=N)N)NC(=O)[C@H](CO)NC(=O)[C@@H](N)Cc1c[nH]c2ccccc12)C(C)C)[C@@H](C)O)C(=O)N[C@@H](Cc1c[nH]c2ccccc12)C(=O)N[C@@H](Cc1c[nH]cn1)C(=O)N[C@@H](CCCNC(=N)N)C(=O)N[C@@H](Cc1c[nH]c2ccccc12)C(=O)O` [PF-547] (H-WSRVPGHSDTGWKVWHRW-OH; N-terminus and C-terminus assumed), for which the minimum inhibitory concentration (MIC) with S. mutans came to 12.5 µM (≈ 28.5 µg/mL); against T. rubrum it was 25 µM (≈ 56.9 µg/mL); with B. subtilis, 25 µM (≈ 56.9 µg/mL).

For the compound `CC[C@H](C)[C@H](NC(=O)[C@H](CCCNC(=N)N)NC(=O)[C@@H]1CCCN1C(=O)[C@H](CCC(=O)O)NC(=O)[C@H](CC(C)C)NC(=O)[C@@H]1CCCN1C(=O)[C@H](CC(=O)O)NC(=O)[C@@H](N)CC(C)C)C(=O)N[C@@H](C)C(=O)N1CCC[C@H]1C(=O)N1CCC[C@H]1C(=O)NCC(=O)N[C@@H](CC(=O)O)C(=O)N[C@@H](CCCNC(=N)N)C(=O)N[C@@H](CO)C(=O)N[C@@H](Cc1c[nH]cn1)C(=O)N[C@@H](CCC(N)=O)C(=O)NCC(=O)N[C@@H](C)C(=O)N1CCC[C@H]1C(=O)N[C@@H](C)C(=O)N[C@@H](CS)C(=O)N[C@@H](Cc1c[nH]cn1)C(=O)N[C@@H](CCCNC(=N)N)C(=O)N[C@@H](CC(=O)O)C(=O)N1CCC[C@H]1C(=O)N[C@@H](CC(C)C)C(=O)N[C@@H](CCCNC(=N)N)C(=O)NCC(=O)N[C@@H](CCCNC(=N)N)C(=O)N[C@@H](CO)C(=O)N[C@@H](C)C(=O)N[C@@H](CCCNC(=N)N)C(=O)N[C@@H](CC(=O)O)C(=O)N[C@@H](C)C(=O)N[C@@H](CCC(=O)O)C(=O)N[C@@H](CCCNC(=N)N)C(=O)O` [PF-C019] (H-LDPLEPRIAPPGDRSHQGAPACHRDPLRGRSARDAER-OH; N-terminus and C-terminus assumed), the MIC in the assay with S. mutans amounted to 25 µM (≈ 102 µg/mL); against A. niger it was 50 µM (≈ 204 µg/mL); against T. rubrum it was 50 µM (≈ 204 µg/mL).

As for `CC(C)[C@H](NC(=O)[C@@H](N)Cc1ccc(O)cc1)C(=O)N[C@@H](CC(N)=O)C(=O)N[C@@H](Cc1ccc(O)cc1)C(=O)N[C@@H](CC(N)=O)C(=O)N[C@@H](CCC(N)=O)C(=O)N[C@@H](CO)C(=O)N[C@@H](Cc1ccccc1)C(=O)N[C@@H](CC(N)=O)C(=O)N[C@@H](CO)C(=O)NCC(=O)N[C@@H](Cc1c[nH]c2ccccc12)C(=O)O` [PF-C220] (H-YVNYNQSFNSGW-OH; N-terminus and C-terminus assumed), the minimum inhibitory concentration (MIC) with C. albicans is 50 µM (≈ 73.9 µg/mL).

By MIC is commonly meant the lowest concentration that inhibits growth of the organism. A high value points to a less susceptible organism.
